In paper PMC11982498 (Redox Biology, 2025):
“And” between values parts separate entries of the source, which are not always exact repeats. Identical values can stand only once.

Experiments:
[1] = system: BCL-2 promoter C-rich sequence; test: EMSA of BCL-2 i-motif formation; format: binding; conditions: pH 6.2; 1, 5, 10 eq
Method: Figure S5. ESI-MS, UV, CD, and EMSA experiments were performed to examine the effect of B14 on BCL-2 promoter i-motif and G-quadruplex. (A) ESI-MS experiment for oligomer BCL-2 G4 alone, which was annealed in 1 × BPES buffer at pH 7.4. (B) ESI-MS experiment for above oligomer BCL-2 G4 with addition of B14 in 1 × BPES buffer at pH 7.4. (C-D) TO displacement with increasing amount of oligomer BCL-2 i-motif annealed in 1 X BPES buffer at pH 5.5 in the presence of 20 equivalents of B14 or A22. (E) EMSA experiment was performed for the effect of B14 on inducing BCL-2 i-motif formation. The lanes from left to right were as follow: BCL-2 i-motif alone at pH 5.5; BCL-2 i-motif alone at pH 6.2; BCL-2 i-motif plus 1 eq B14 at pH 6.2; BCL-2 i-motif plus 5 eq B14 at pH 6.2; BCL-2 i-motif plus 10 eq B14 at pH 6.2. (F) CD experiment was performed to study the interaction of B14 or A22 with BCL-2 promoter i-motif.
The DNA oligonucleotides were diluted to 5 μM with 1 × BPES buffer at pH 5.5 or pH 6.2, and different equivalents of compound were added. The mixtures were annealed at 95 °C for 10 min, gradually cooled to room temperature, and incubated at 4 °C overnight. Electrophoresis was carried out using 20% acrylamide Native PAGE (pH 6.4) with 1 × Tris-borate-EDTA (TBE) as running buffer (pH 6.4) at 80 V for 7 h at 4 °C. The gels were then silver-stained and photographed.

[2] = system: BCL-2 promoter i-motif; test: TO displacement assay, BCL-2 i-motif; format: binding; conditions: BPES buffer pH 5.5
Method: Figure S4. TO displacement and UV titration experiments were performed to examine the effects of B14 and A22 on BCL-2 promoter i-motif. (A-B) TO displacement was performed on BCL-2 promoter i-motif annealed in 1XBPES buffer at pH 5.5 with increasing amount of B14 and A22. (C) The above relative TO displacement ratio were statistically analyzed.
(§1) DNA oligonucleotides were diluted to 1 μM with 1 × PBES buffer at pH 5.5, annealed at 95 °C for 10 min, cooled to room temperature, and stored at 4 °C for future use. TO dye (1 μM) was added to the DNA solution followed with incubation for 1 h. The spectra of 100 μL mixture with addition of different equivalent compounds at 25 °C were recorded based on fluorescence emission (λex = 480 nm).
(§2) TO displacement ratio (%) = (F0 − FC) / (F0 − FB) * 100.
(§3) F0 and FC were the fluorescence intensity of TO at 536 nm with DNA before and after adding compounds, respectively. FB was the fluorescence intensity of TO at 536 nm with buffer only.

[3] = biological target: ILPR promoter i-motif; test: SPR binding to ILPR promoter i-motif; conditions: MES buffer pH 5.5
[4] = system: APP/PS1 transgenic mice; test: Elevated plus maze (EPM); format: in vivo; conditions: B14 10, 20, 40 mg/kg i.p. every other day
From the text: Five months old male APP/PS1 mice, weighing 25–33 g, were purchased from Guangdong Medical Laboratory Animal Center and housed in the Laboratory Animal Center of Sun Yat-sen University (Guangzhou, China) for experimentation. All procedures were approved by the Animal Care and Use Committee of Sun Yat-sen University and complied with legal requirements and national guidelines for the care and maintenance of laboratory animals (Approval No. SYSU-IACUC-2024-002032). The mice were housed in a specific pathogen-free environment with a controlled temperature of 22 ± 1 °C and a 12-h dark/light cycle. The mice were fed with a standard diet, and 30 mice were randomly divided into 6 groups (N = 5). Compound B14 was dissolved in saline and administered at doses of 10, 20, or 40 mg/kg. APP/PS1 male mice were grown until 6 months of age, and then injected intraperitoneally with compound B14 every other day for 60 days. Behavioral experiments were then conducted, and tissue specimens were collected for biochemical analysis.
The spatial memory and learning abilities of the mice were assessed using Morris water maze (MWM), novel object recognition (NOR) and nesting experiments (NBT). The anxiety and depressive behaviors were evaluated through the open field test (OFT) and elevated plus maze (EPM). Detailed experimental procedures are provided in the supplementary information. […]

[5] = system: RB promoter i-motif; test: TO displacement assay, RB i-motif; format: binding
Method: as §1, §2, §3

[6] = biological target: T1, Aβ1-42 (Homo sapiens, UniProt P05067); test: Transmission electron microscopy of Aβ1-42 fibrils; format: biochemical; conditions: 20 μM compound, 72 h
T1 construct: Aβ1-42 was purchased from Gill Biochemicals Ltd (Shanghai, China); purchased Gill Biochemicals Ltd (Shanghai, China)
T1 sequence (P05067 672-713 limits assumed): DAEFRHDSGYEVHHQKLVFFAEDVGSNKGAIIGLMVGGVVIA
Method: (§4) TEM experiment was carried out following a published method without significant modification, and the Aβ1-42 solution (100 μM) was co-incubated with B14 (20 μM) or Curcumin (20 μM) at 37 °C for 72h. The samples were dropped to a carbon-coated grid, stained with 2 % phosphotungstic acid, and then dried at room temperature. The morphology of Aβ1-42 fiber was observed on a JEM-1200EX II transmission electron microscope (Jeol, Japan).
as §4, with “The” for “TEM experiment was carried out following a published method without significant modification, and the”, “B14 solution” for “B14”, “2%” for “2 %”

[7] = system: bio-(G2C4)6 (DNA, i motif) GGCCCCGGCCCCGGCCCCGGCCCCGGCCCCGGCCCC; test: SPR; conditions: K+ 100 mM; 20 mM MES, pH 5.5, 25 °C

O=C(CCN1CCOCC1)Nc1ccc2c(c1)c(=O)c1cc(NC(=O)CCN3CCOCC3)ccc1n2-c1ccc2occc2c1 [Compound B14]
i-motif migration band (EMSA) [1]: could induce BCL-2 i-motif formation in a dose-dependent manner | Relative TO displacement ratio [2]: 65% and 65.7% | Kd [3]: > 50 µM | number of entries into the open arm and retention time (EPM) [4]: significantly increased | TO displacement ratio [5]: 1% | ultrastructure of Aβ1-42 fibers (TEM) [6]: formation of protofibrils or amorphous oligomers was significantly reduced | KD [7]: 33.30 µM
